Active and inactive are the calls of the source.
Experiments:
[1] = test system: Chaperonin GroEL (Escherichia coli (strain K12)), P0A6F5 [I493C]; test: Inhibition of Escherichia coli 60 kDa chaperonin groEL I493C mutant
Escherichia coli [2] = test: Inhibition of Escherichia coli 60 kDa chaperonin groEL ATPase activity assessed as inorganic phosphate release at 50 uM by Malachite green complex formation assay
[3] = test system: Chaperonin GroEL (Escherichia coli (strain K12)), P0A6F5 [I493C]; test: Inhibition of Escherichia coli 60 kDa chaperonin groEL I493C mutant ATPase activity assessed as inorganic phosphate release at 50 uM by Malachite green complex formation assay
[4] = test system: Chaperonin GroEL (Escherichia coli (strain K12)), P0A6F5 [I493C]; test: (§1) Inhibition of Escherichia coli 60 kDa chaperonin groEL refolding activity assessed as recovered enzyme activity of bovine rhodanese at 50 uM
Escherichia coli [5] = test: as §1
[6] = test system: Chaperonin GroEL (Escherichia coli (strain K12)), P0A6F5 [I493C]; test: (§2) Inhibition of Escherichia coli 60 kDa chaperonin groEL refolding activity assessed as recovered enzyme activity of pig heart malate dehydrogenase at 50 uM
Escherichia coli [7] = test: as §2

Measured: Activity

Chaperonin GroEL (Escherichia coli (strain K12)), P0A6F5 [I493C], sequence (P0A6F5 whole entry I493C): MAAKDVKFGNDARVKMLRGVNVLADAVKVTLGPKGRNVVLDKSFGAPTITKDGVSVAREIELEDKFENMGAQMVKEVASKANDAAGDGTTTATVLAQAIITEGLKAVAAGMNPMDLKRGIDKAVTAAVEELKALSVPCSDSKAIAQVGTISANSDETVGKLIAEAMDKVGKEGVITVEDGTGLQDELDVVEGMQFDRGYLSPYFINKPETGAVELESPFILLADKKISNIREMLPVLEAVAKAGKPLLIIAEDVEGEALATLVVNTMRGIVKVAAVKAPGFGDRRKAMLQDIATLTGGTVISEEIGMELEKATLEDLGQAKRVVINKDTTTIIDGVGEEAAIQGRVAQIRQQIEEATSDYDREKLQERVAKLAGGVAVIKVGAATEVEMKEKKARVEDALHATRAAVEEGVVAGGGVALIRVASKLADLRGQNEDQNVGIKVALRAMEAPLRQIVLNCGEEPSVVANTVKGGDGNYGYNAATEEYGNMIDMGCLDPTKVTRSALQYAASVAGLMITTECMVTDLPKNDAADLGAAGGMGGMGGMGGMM

CC(C)(C)n1nc(-c2ccc(NC(=O)C3CCCC3)cc2)c2c(N)ncnc21
active: all assays above

Source: ChEMBL document CHEMBL1143292, “A small molecule inhibitor selective for a variant ATP-binding site of the chaperonin GroEL” (Bioorg Med Chem Lett, 2009)
